Measured values taken from patent US10570121B2, “Substituted dihydroisoquinolinone compounds” (priority 2014, dated 2020).

Key:
[1] = target: EZH2 Mutant Y641N (Homo sapiens (Human), UniProt Q15910, Y641N); experiment: EZH2 Mutant Y641N nucleosome assay; assay type: biochemical; conditions: PRC2 4-protein complex 6 nM, 1.5 μM SAM, HeLa oligonucleosomes; read-out: EZH2 Mutant Y641N Nucleosome assay IC50
Method: (§1) The genes for EZH2, EED, SUZ12, and RBBP4 proteins were cloned into pBacPAK9 vectors (Clontech). RBBP4 was FLAG tagged on the N-terminal end. The baculovirus expressions of these proteins were used to co-infect SF9 insect cells. Insect cell pellets were lysed in a buffer containing 25 mM Tris pH8.0, 300 mM NaCl, 0.5 mM TCEP, complete EDTA-free protease inhibitor (Roche), 0.1% NP-40. The supernatant from the lysate was incubated with FLAG® M2 antibody resin (Sigma). The resin was washed on the chromatography column and eluted with 0.2 mg/ml FLAG peptide. The elute was incubated with omnicleave nucleases (Epicentre Technologies) at 4° C. overnight, then concentrated and loaded onto a Superdex 200 (GE Healthcare) column. The Superdex 200 column was eluted with 25 mM Tris pH8.0, 150 mM NaCl, 0.5 mM TCEP. Fractions containing the PRC2 complex were pooled.
(§2) A. Compound preparation • 1.
(§3) B. Reagent preparation • 1. […] Dilute TCA to 20% in DI water
(§4) C. Enzyme reaction • 1. […] Some compounds were tested under high SAM conditions.
(§5) D. Data analysis • 1. IC50 values were determined by fitting the data to a 4-parameter IC50 equation using proprietary curve fitting software. • 2. For compounds tested under high SAM conditions, Ki^app values were obtained by fitting the dose response curve to a model for competitive inhibition using proprietary curve fitting software. Preparation of HeLa Oligonucleosomes: Reagents • Cell Pellet: 15 L HeLa S3 (Accelgen)+6 L HeLa S3 (in house) • Mnase (Worthington Biochemicals) Equipment • SW-28 Rotor • Dounce Homogenizer/B Pestle Buffers • Lysis: 20 mM Hepes pH 7.5, 0.25M Sucrose, 3 mM MgCl2, 0.5% Nonidet P-40, 0.5 mM TCEP, 1 Roche Protease Tablet • B: 20 mM Hepes pH7.5, 3 mM MgCl2, 0.5 mM EDTA, 0.5 mM TCEP, 1 Roche Protease Tablet • MSB: 20 mM Hepes pH7.5, 0.4 M NaCl, 1 mM EDTA, 5% v/v Glycerol, 0.5 mM TCEP, 0.2 mM PMSF • LSB: 20 mM Hepes pH7.5, 0.1M NaCl, 1 mM EDTA, 0.5 mM TCEP, 0.2 mM PMSF • NG: 20 mM Hepes pH7.5, 1 mM EDTA, 0.4 m NaCl, 0.2 mM PMSF, 0.5 mM TCEP • Storage: 20 mM Hepes pH7.5, 1 mM EDTA, 10% Glycerol, 0.2 mM PMSF, 0.5 mM TCEP Protocol

[2] = target: WT EZH2 (Homo sapiens (Human), UniProt Q15910); experiment: WT EZH2 nucleosome assay (10X SAM, high SAM conditions); assay type: biochemical; conditions: 15 uM SAM, Ki app from competitive inhibition fit, read-out: WT EZH2 Nucleosome assay (10X SAM) Ki
Sequence of WT EZH2 (Q15910 whole entry, looked up): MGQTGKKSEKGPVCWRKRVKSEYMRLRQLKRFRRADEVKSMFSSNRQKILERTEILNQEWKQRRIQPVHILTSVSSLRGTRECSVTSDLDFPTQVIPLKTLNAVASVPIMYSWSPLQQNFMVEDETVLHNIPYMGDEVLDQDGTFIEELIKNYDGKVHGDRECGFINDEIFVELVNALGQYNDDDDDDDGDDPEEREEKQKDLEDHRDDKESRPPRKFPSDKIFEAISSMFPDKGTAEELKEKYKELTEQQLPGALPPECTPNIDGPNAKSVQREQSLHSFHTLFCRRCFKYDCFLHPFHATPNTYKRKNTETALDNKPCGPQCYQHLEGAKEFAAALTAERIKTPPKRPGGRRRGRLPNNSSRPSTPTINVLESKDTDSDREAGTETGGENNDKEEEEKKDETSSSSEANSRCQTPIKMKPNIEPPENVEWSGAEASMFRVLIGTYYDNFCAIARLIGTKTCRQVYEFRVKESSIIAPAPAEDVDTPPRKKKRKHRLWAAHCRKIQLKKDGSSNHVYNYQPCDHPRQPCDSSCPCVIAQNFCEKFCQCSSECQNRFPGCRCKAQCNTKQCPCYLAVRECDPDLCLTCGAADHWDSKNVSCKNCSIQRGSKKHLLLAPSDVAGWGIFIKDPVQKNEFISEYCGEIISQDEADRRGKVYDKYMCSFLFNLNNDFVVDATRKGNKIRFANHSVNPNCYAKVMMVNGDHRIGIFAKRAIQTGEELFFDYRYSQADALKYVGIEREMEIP
Sequence of WT EZH2 (O75530 whole entry partner, looked up): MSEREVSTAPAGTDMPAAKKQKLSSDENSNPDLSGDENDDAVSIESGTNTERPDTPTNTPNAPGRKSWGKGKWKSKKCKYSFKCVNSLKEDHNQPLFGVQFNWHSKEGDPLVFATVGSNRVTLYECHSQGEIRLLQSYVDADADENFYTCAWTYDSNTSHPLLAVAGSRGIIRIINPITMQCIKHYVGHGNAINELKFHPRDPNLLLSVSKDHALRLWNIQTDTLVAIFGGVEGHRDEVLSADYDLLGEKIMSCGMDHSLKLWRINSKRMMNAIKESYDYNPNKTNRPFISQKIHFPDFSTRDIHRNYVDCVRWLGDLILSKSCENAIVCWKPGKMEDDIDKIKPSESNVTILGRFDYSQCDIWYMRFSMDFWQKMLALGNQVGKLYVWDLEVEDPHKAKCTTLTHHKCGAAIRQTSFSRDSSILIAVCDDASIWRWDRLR
Sequence of WT EZH2 (Q15022 whole entry partner, looked up): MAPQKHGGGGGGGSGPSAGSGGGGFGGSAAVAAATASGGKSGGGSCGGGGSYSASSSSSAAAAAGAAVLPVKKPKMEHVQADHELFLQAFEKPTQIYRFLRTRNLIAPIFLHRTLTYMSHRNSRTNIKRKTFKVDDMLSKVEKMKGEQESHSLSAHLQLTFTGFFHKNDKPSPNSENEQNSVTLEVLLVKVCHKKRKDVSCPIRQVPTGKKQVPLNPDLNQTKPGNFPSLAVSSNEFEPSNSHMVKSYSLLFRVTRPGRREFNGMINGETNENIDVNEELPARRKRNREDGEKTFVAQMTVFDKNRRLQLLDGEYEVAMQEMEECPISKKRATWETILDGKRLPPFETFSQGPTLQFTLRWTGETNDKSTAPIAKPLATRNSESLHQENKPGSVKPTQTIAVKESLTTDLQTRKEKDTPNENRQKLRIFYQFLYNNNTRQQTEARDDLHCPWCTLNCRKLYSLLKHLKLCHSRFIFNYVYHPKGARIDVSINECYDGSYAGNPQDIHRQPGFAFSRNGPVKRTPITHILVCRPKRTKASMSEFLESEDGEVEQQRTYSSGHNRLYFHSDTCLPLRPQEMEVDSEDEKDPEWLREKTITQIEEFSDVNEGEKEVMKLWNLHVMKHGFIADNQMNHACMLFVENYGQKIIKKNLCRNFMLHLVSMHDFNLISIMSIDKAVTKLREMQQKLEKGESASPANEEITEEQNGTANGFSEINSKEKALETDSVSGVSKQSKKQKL
Sequence of WT EZH2 (Q09028 whole entry partner, looked up): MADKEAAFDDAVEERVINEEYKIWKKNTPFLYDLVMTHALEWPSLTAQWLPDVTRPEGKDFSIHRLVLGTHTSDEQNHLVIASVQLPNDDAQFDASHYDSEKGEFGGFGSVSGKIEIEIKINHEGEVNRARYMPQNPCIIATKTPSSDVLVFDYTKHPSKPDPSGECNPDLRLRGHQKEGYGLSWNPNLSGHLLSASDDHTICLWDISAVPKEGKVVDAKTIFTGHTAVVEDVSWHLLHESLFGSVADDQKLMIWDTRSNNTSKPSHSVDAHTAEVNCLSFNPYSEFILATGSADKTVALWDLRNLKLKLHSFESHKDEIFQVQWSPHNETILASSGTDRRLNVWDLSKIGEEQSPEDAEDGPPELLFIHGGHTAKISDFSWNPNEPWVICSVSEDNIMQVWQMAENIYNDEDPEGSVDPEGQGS
Method: as §1, §2, §3, §4, §5

Sequence of EZH2 Mutant Y641N (Q15910 whole entry Y641N, looked up): as the sequence (Q15910 whole entry, looked up) above, with Y641N counted along it
Sequence of EZH2 Mutant Y641N (O75530 whole entry partner, looked up): as the sequence (O75530 whole entry partner, looked up) above
Sequence of EZH2 Mutant Y641N (Q15022 whole entry partner, looked up): as the sequence (Q15022 whole entry partner, looked up) above
Sequence of EZH2 Mutant Y641N (Q09028 whole entry partner, looked up): as the sequence (Q09028 whole entry partner, looked up) above

Compound | IC50 [1] [nM] | Ki [2] [nM]
COc1cc(C)[nH]c(=O)c1CN1CCc2c(Cl)cc(C(C)C3CN(C)C3)c(Cl)c2C1=O (single isomer, unassigned) [Example 87, 5,8-dichloro-2-[(4-methoxy-6-methyl-2-oxo-1,2-dihydropyridin-3-yl)methyl]-7-[1-(1-methylazetidin-3-yl)ethyl]-3,4-dihydroisoquinolin-1 (2H)-one] | 2 | 0.01
COc1cc(C)[nH]c(=O)c1CN1CCc2c(Cl)cc(C(C)C3CN(C)C3)c(Cl)c2C1=O (single isomer, unassigned) [Example 88, 5,8-dichloro-2-[(4-methoxy-6-methyl-2-oxo-1,2-dihydropyridin-3-yl)methyl]-7-[1-(1-methylazetidin-3-yl)ethyl]-3,4-dihydroisoquinolin-1 (2H)-one] | 122 | 28
Cc1cc(OC(F)F)c(CN2CCc3c(Cl)cc(C(CO)C4CCOC4)c(Cl)c3C2=O)c(=O)[nH]1 (single isomer, unassigned) [Example 92] | 9 | 1
Cc1cc(OC(F)F)c(CN2CCc3c(Cl)cc(C(CO)C4CCOC4)c(Cl)c3C2=O)c(=O)[nH]1 (single isomer, unassigned) [Example 93] | 1330 | 159
Cc1cc(OC(F)F)c(CN2CCc3c(Cl)cc(C(CO)C4CCOC4)c(Cl)c3C2=O)c(=O)[nH]1 (single isomer, unassigned) [Example 94] | 4870 | 323
Cc1cc(OC(F)F)c(CN2CCc3c(Cl)cc(C(CO)C4CCOC4)c(Cl)c3C2=O)c(=O)[nH]1 (single isomer, unassigned) [Example 95] | 12 | 1
Cc1cc(C)c(CN2CCc3ccc(C(CO)C4CCOC4)c(Cl)c3C2=O)c(=O)[nH]1 (single isomer, unassigned) [Example 96] | 2990 | 204
Cc1cc(C)c(CN2CCc3ccc(C(CO)C4CCOC4)c(Cl)c3C2=O)c(=O)[nH]1 (single isomer, unassigned) [Example 97] | 27 | 3
Cc1cc(C)c(CN2CCc3ccc(C(CO)C4CCOC4)c(Cl)c3C2=O)c(=O)[nH]1 (single isomer, unassigned) [Example 98] | 8720 | 1220
Cc1cc(C)c(CN2CCc3ccc(C(CO)C4CCOC4)c(Cl)c3C2=O)c(=O)[nH]1 (single isomer, unassigned) [Example 99] | 17 | 3
Cc1cc(C)c(CN2CCc3c(C)cc(C(CO)C4CCOCC4)c(Cl)c3C2=O)c(=O)[nH]1 (single isomer, unassigned) [Example 100] | 3730 | 309
Cc1cc(C)c(CN2CCc3c(C)cc(C(CO)C4CCOCC4)c(Cl)c3C2=O)c(=O)[nH]1 (single isomer, unassigned) [Example 101] | 7 | 0.3
Cc1cc(C)c(CN2CCc3c(Cl)cc(C(CO)O[C@@H]4CCOC4)c(Cl)c3C2=O)c(=O)[nH]1 (single isomer, unassigned) [Example 103] | 320 | 52
Cc1cc(C)c(CN2CCc3c(Cl)cc(C(CO)O[C@@H]4CCOC4)c(Cl)c3C2=O)c(=O)[nH]1 (single isomer, unassigned) [Example 104] | 7770 | 673
CCC(OC)c1cc(Cl)c2c(c1Cl)C(=O)N(Cc1c(OC)cc(C)[nH]c1=O)CC2 (single isomer, unassigned) [Example 107] | 18 | 1.9
CCC(OC)c1cc(Cl)c2c(c1Cl)C(=O)N(Cc1c(OC)cc(C)[nH]c1=O)CC2 (single isomer, unassigned) [Example 108] | 16 | 1.7
COC(c1cc(Cl)c2c(c1Cl)C(=O)N(Cc1c(C)cc(C)[nH]c1=O)CC2)C1CC[S+]([O-])CC1 (single isomer, unassigned) [Example 114] | 152 | 16
COC(c1cc(Cl)c2c(c1Cl)C(=O)N(Cc1c(C)cc(C)[nH]c1=O)CC2)C1CC[S+]([O-])CC1 (single isomer, unassigned) [Example 115] | 5 | 0.3
